These results are taken from patent publication US5718900A, “Vaccines and methods for preventing and treating Fescue toxicosis in herbivores” (priority 1994, dated 1998).

The structures appear in SMILES notation. Counter-ions that a name gives are not always drawn. A value given as a limit tells only on which side of the number the result lay.

Assay [1] deals with monoclonal antibody 15F3.E5. The assay is described as follows: Cross-reactivity of the monoclonal antibody, competitive ELISA on PLL-lysergic acid coated plates. Particulars: for IC50: antibody diluted 1:50, pre-incubated 1 h with lysergic acid derivative, absorbance at 405 nm, read-out: Molar Concentration at 50% Maximum Absorbance; for cross reaction of 15F3.E5 with lysergic acid derivative: at the concentrations tested. It is filed as binding, mouse. On the procedure:
Mouse monoclonal antibody was diluted 1:50 in ELISA diluent. Working dilutions of various lysergic acid derivatives ranging between 1.78×10^-6 to 3.93×10^-15 M were made in 1:10 increments in PBS and 50 uL aliquots were pre-incubated for 1 h with 50 uL of diluted antibody at room temperature. To determine presence of unbound antibody, pre-incubated antibody/lysergic derivatives were transferred to ELISA plates pre-coated with PLL-lysergic acid for 2 h at room temperature. After washing, ELISA plates were treated with 1:500 dilution of rabbit derived antimouse antibody conjugated to alkaline phosphatase:ELISA diluent for 2 h at room temperature and washed. Fifty microliters of alkaline phosphate substrate was added to each well and the characteristic yellow color indicating binding of mouse antibody to the PLL-lysergic acid measured at 405 nm on a Titertek Multiskan Model MCC/340 plate reader.

Assay [2] concerns fescue toxicosis. Particulars: literature report; cited from earlier work.
In assay [3] the test system is Angus steers. Particulars: literature report; cited from earlier work.

For the compound `CC(C)C[C@H]1C(=O)N2CCC[C@H]2[C@]2(O)O[C@](NC(=O)[C@@H]3C=C4c5cccc6[nH]c(Br)c(c56)C[C@H]4N(C)C3)(C(C)C)C(=O)N12` [2-bromo-a-ergocryptine], the IC50 in assay [1] is greater than 1330 nM.
For `CN1C[C@H](C(=O)O)C=C2c3cccc4[nH]cc(c34)C[C@H]21` [Lysergic Acid], in assay [1], the IC50 was found to be 0.0373 nM and the “cross reaction of 15F3.E5 with lysergic acid derivative” value (from here on “cross reaction of 15F3.E5”) is recorded as “cross reaction”.
In the case of `CC(C)[C@H]1C(=O)N2CCC[C@H]2[C@]2(O)O[C@@](C)(NC(=O)[C@@H]3C=C4c5cccc6[nH]cc(c56)C[C@H]4N(C)C3)C(=O)N12` [Ergovaline], the “cross reaction of 15F3.E5” value in assay [1] is on record as “cross reaction”.
`Cc1ncc(C[n+]2csc(CCO)c2C)c(N)n1` [thiamine]: the “effect on symptoms of fescue toxicosis” value in assay [2] is reported as “partially alleviated symptoms”.
For the compound `CN1C[C@H](CO)C=C2c3cccc4[nH]cc(c34)C[C@H]21` [Lysergol], the “cross reaction of 15F3.E5” value in assay [1] is “cross reaction”.
`C[C@@H](CO)NC(=O)[C@@H]1C=C2c3cccc4[nH]cc(c34)C[C@H]2N(C)C1` [Ergonovine]: in assay [1], the IC50 was found to be 1.69 nM and the “cross reaction of 15F3.E5” value is “cross reaction”.
For `CC(C)C1C(=O)N2CCCC2C2(O)OC(NC(=O)C3CC4c5cccc6[nH]cc(c56)CC4N(C)C3)(C(C)C)C(=O)N12` (stereo not shown) [dihydro-ergocornine], the IC50 in assay [1] was greater than 1680 nM.
`CC(C)[C@@]1(NC(=O)[C@@H]2C[C@@H]3c4cccc5[nH]cc(c45)C[C@H]3N(C)C2)O[C@@]2(O)[C@@H]3CCCN3C(=O)[C@H](Cc3ccccc3)N2C1=O` [dihydro-ergocristine]: the IC50 in assay [1] was greater than 1780 nM.
On to `CN1C[C@H](C(=O)N[C@]2(C)O[C@@]3(O)[C@@H]4CCCN4C(=O)[C@H](Cc4ccccc4)N3C2=O)C=C2c3cccc4[nH]cc(c34)C[C@H]21` [Ergotamine tartrate], for which, in assay [1], the IC50 turned out to be 7.69 nM and the “cross reaction of 15F3.E5” value was “cross reaction”.
Turning to `CCN(CC)CCNC(=O)c1cc(Cl)c(N)cc1OC` [metoclopramide], the “effect on serum prolactin, weight gains and hair coats” value in assay [3] was “increased serum prolactin and weight gains”.
